Reference: ChEMBL document CHEMBL5506004, “Optimizing drug-like properties of selective butyrylcholinesterase inhibitors for cognitive improvement: Enhancing aqueous solubility by disrupting molecular plane” (Eur J Med Chem, 2024)
The source made the active and inactive calls. The rule behind the calls is not given here.

What was measured:
Cholinesterase [1] = biological target: Cholinesterase (Equus caballus, UniProt P81908); assay: Inhibition of horse serum BChE using BTC iodide as substrate preincubated for 5 mins followed by substrate addition measured after 2 mins by Ellman's method
Chain of Cholinesterase (Equus caballus, UniProt P81908) (P81908 whole entry): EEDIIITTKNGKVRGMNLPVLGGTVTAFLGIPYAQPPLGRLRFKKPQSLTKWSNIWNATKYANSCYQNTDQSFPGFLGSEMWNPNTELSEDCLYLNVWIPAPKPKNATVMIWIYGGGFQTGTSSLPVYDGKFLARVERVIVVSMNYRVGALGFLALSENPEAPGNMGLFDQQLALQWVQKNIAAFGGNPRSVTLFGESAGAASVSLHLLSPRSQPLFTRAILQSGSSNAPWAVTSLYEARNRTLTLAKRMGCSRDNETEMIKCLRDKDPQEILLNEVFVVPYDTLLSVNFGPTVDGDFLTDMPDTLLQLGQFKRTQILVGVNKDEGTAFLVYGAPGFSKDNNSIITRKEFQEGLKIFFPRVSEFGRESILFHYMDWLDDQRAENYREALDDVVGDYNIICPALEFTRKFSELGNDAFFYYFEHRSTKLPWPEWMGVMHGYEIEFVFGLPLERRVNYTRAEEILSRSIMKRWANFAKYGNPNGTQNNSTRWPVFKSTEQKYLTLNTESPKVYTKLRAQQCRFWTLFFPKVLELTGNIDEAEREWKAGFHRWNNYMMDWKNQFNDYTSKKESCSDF

Cholinesterase [2] = biological target: Cholinesterase (Homo sapiens, UniProt P06276); assay: Non-competitive inhibition of human BChE
Chain of Cholinesterase (Homo sapiens, UniProt P06276) (P06276 whole entry): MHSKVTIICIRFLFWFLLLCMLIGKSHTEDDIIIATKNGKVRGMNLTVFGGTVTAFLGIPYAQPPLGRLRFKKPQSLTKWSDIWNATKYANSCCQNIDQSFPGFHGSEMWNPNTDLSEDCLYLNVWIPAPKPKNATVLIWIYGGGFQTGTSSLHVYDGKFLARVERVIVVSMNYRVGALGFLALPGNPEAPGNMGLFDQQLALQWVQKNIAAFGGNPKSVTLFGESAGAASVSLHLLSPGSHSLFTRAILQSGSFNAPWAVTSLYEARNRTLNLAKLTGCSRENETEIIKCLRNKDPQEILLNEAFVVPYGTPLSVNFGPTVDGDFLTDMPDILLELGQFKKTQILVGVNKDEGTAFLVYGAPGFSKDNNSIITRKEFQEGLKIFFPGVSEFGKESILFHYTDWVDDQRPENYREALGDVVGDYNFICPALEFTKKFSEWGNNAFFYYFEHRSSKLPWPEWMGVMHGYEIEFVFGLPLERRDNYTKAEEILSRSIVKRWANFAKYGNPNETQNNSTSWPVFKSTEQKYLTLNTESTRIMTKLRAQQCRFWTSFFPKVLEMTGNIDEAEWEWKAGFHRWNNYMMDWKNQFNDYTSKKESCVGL

PC-12 [3] = assay: Cytotoxicity against rat PC12 cells assessed as survival rate at 100 uM incubated for 24 hrs by MTT assay relative to control; assay type: functional; details: read-out: Survival
[4] = Cytotoxicity against human L02 cells assessed as survival rate at 100 uM incubated for 24 hrs by MTT assay relative to control; assay type: toxicity, cell-based; details: read-out: Survival
PC-12 [5] = assay: Neuroprotective activity in rat PC12 cells assessed as cell viability pretreated for 2 hrs followed by H2O2 addition measured after 24 hrs by MTT assay; assay type: functional, cell-based; details: time 26.0 hrs
CYP2D6 = CYP2D6 (Homo sapiens, UniProt P10635); assay: Inhibition of CYP2D6 in human liver microsomes at 10 uM in presence of NADPH-regenerating system by LC-MS/MS analysis relative to control; assay type: ADME, Microsome
Chain of CYP2D6 (P10635 whole entry): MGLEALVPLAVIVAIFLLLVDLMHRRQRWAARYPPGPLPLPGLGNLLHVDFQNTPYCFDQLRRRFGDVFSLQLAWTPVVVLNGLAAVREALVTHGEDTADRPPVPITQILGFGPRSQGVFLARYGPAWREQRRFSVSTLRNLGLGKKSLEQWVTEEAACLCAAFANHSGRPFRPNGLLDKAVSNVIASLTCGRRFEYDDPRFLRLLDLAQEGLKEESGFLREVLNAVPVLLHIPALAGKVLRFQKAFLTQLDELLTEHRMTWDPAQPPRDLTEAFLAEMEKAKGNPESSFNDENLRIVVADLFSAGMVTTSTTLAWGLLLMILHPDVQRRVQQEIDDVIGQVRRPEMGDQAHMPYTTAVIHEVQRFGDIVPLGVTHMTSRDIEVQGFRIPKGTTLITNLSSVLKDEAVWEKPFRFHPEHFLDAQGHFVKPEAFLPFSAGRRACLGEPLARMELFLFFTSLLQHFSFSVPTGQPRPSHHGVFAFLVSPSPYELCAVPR

Cytochrome P450 3A4/3A5 = Cytochrome P450 3A4/3A5 (Homo sapiens, UniProt P08684+P20815); assay: Inhibition of CYP3A4/CYP3A5 in human liver microsomes at 10 uM in presence of NADPH-regenerating system by LC-MS/MS analysis; assay type: ADME, Microsome
[6] = MRT (infinity) in Sprague-Dawley rat at 10 mg/kg, po measured for 1 to 1440 mins by LC-MS/MS analysis; assay type: ADME, organism-based; details: in vivo, time 1-1440 min
[7] = AUC (0 to t) in Sprague-Dawley rat at 10 mg/kg, iv measured for 1 to 1440 mins by LC-MS/MS analysis; assay type: ADME, organism-based; details: in vivo, time 1-1440 min
[8] = MRT (infinity) in Sprague-Dawley rat at 10 mg/kg, iv measured for 1 to 1440 mins by LC-MS/MS analysis; assay type: ADME, organism-based; details: in vivo, time 1-1440 min
[9] = Tmax in Sprague-Dawley rat at 10 mg/kg, iv measured for 1 to 1440 mins by LC-MS/MS analysis; assay type: ADME, organism-based; details: in vivo, time 1-1440 min
[10] = Cmax in Sprague-Dawley rat at 10 mg/kg, iv measured for 1 to 1440 mins by LC-MS/MS analysis; assay type: ADME, organism-based; details: in vivo, time 1-1440 min
[11] = Permeability of compound at 50 ug/ml incubated for 18 hrs by PAMPA; assay type: ADME; details: dose 50 µg/ml, read-out: permeability
[12] = biological target: Amyloid-beta precursor protein (Mus musculus) (UniProt P12023); assay: In vivo inhibition of Amyloid beta (1 to 42) self-aggregation in brain of Amyloid beta (1 to 42)-treated ICR mouse at 10 mg/kg, po administered daily for 12 days; assay type: functional, organism-based; details: time 12.0 day
Chain of Amyloid-beta precursor protein (Mus musculus) (P12023 whole entry): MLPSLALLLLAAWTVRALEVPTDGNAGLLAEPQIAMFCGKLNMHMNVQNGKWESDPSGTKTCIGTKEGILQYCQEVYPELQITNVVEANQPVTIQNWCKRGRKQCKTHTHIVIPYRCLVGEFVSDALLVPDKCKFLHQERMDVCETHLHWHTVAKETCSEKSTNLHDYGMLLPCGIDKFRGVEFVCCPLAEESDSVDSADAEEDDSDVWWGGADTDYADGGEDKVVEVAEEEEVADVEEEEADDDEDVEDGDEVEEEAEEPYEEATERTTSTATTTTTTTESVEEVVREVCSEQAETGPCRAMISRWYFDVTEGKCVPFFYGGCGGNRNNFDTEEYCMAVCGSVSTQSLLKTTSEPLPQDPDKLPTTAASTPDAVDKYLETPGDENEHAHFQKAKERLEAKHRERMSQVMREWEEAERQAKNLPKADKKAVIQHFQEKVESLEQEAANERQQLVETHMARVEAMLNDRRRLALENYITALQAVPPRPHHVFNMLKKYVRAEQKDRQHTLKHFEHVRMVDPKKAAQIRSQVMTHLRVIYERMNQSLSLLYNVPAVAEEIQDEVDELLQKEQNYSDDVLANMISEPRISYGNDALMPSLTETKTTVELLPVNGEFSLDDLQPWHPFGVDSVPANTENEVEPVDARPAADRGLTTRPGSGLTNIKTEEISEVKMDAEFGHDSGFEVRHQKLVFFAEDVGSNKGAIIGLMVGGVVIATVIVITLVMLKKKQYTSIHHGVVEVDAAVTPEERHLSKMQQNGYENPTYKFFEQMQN

Mus musculus = assay: Downregulation of Amyloid beta (1 to 42) level in brain of Amyloid beta (1 to 42)-treated ICR mouse at 10 mg/kg, po administered daily for 12 days; assay type: functional, organism-based; details: time 12.0 day
[13] = Toxicity in Amyloid beta (1 to 42)-treated ICR mouse assessed as body weight change at 10 mg/kg, po administered daily for 12 days; assay type: organism-based; details: in vivo, 288 h, time 12 day

Q: With `Nc1nonc1-c1nc2ccccc2n1CC(=O)Nc1ccc(CCN2CCOCC2)cc1` as the molecule, how does the IC50 (Cholinesterase [1]) read?
A: 11.3 nM

Q: And the inhibition (Cholinesterase [2])?
A: Active

Q: What about the viability at 100 µM (PC-12 [3]) of the same molecule?
A: 75.5%

Q: What about the viability at 24 h, 100 µM [4] of the same molecule?
A: 87.1%

Q: And the Activity (PC-12 [5])?
A: Dose-Dependent Effect

Q: What about the inhibition at 10 µM (CYP2D6) of the same molecule?
A: 0.89%

Q: What about the “inhibition (INH)” value (Cytochrome P450 3A4/3A5) of the same molecule?
A: Not Active

Q: What about the MRT inf [6] of the same molecule?
A: 9.67 h

Q: And the AUC(0-t) [7]?
A: 3570 ng·h/mL

Q: And the MRT inf [8]?
A: 2.57 h

Q: And the Tmax [9]?
A: 3 min

Q: And the Cmax [10]?
A: 4610 ng/mL

Q: What about the Papp at 18 h, 50 ug/ml [11] of the same molecule?
A: 6.64 ×10⁻⁶ cm/s

Q: And the inhibition [12]?
A: inactive

Q: What about the Activity (Mus musculus) of the same molecule?
A: Active

Q: And the Activity [13]?
A: Non-Toxic
